Data as given in patent US9102620B2, “Deuterated N-ethyl-N-phenyl-1,2-dihydro-4-hydroxy-5-chloro-1-methyl-2-oxoquinoline-3-carboxamide, salts and uses thereof” (TEVA PHARMACEUTICAL INDUSTRIES, LTD., priority 2010, dated 2015).
Values joined by “and” are separate entries in the source; they are usually repeats but may differ in a detail not shown here. Equal entries are not always repeated. Where two headings read alike, the source gives them in different places.

Legend:
[1] = tested on: cultured human hepatocytes; format: in vitro ADME
Procedure: Just prior to treatment, on each day of treatment, and just prior to incubation of the marker substrates, spent culture medium (spent dosing media) were collected from the vehicle, laquinimod and Compound 2 treatment groups. Approximately 150 μL was collected from each of three wells, from each aforementioned treatment groups, and pooled for each sample to a final volume of approximately 450 μL. These spent media samples were analyzed for residual laquinimod, Compound 2 and the de-ethylated metabolite (DELAQ).
The concentrations of Compound 2, laquinimod and DELAQ were measured in spent media aliquots from media collected just prior to treatment, on each day of treatment, and just prior to incubation of the marker substrates. The concentration of formed DELAQ was approximately 2-fold higher in the laquinimod media compared to the Compound 2 media. At the 10 μM treatment concentrations of either Compound 2 or laquinimod, the ratio of Compound 2:DELAQ was on average, 40.9 while the ratio of laquinimod:DELAQ was on average, 15.7. This represents an approximately 3-fold increase in the formation of DELAQ from laquinimod compared to Compound 2 and is explained by the presence of deuterium on the ethyl moiety which results in slower N-deethylation.

[2] = tested on: CYP3A4/5; conditions: human, 3 days; for Enzyme activity, Midazolam 1′-hydroxylation (CYP3A4/5) / Percent positive control, Midazolam 1′-hydroxylation (CYP3A4/5) activity: hepatocytes
Procedure: (§1) After treatment, the cells were incubated in situ with marker substrates for the analysis of phenacetin O-dealkylation (marker for CYP1A2) and midazolam 1′-hydroxylation (marker for CYP3A4/5) by LC/MS/MS.
(§2) Incubations of hepatocytes with probe substrates were conducted in accordance with SOP L5041.02. Approximately 24 hours after the last treatment, spent media was aspirated from the wells, and each well was rinsed two times with pre-warmed (37±2° C.) fresh culture media. Media was aspirated from the wells and reactions were started by addition of 200 μL pre-warmed media containing the probe substrate to each well. […] At 30 minutes, an aliquot (150 μL) of the incubation mixture was removed and added to a well of a 96-well plate containing 300 μL of stop reagent (acetonitrile) and internal standard (Table 2). The mixtures were mixed thoroughly and allowed to sit for at least 15 minutes at 2-8° C. Samples were centrifuged at 2000×g for 10 minutes at 2-8° C., and supernatant fractions were analyzed by LC/MS/MS.
(§3) All analyses were performed with validated LC/MS/MS methods. The procedures used for the analysis of each metabolite followed the applicable LC/MS/MS analytical method SOPs and are summarized in Table 2. The MS equipment was either an ABI Sciex (Applied Biosystems/MDS SCIEX) API 4000 or API 3000 instrument with Shimadzu HPLC pumps and autosampler systems.
(§4) Individual rates of reaction from like treatment groups were averaged, and for those groups with n≧3, standard deviations were determined. Fold increases were determined by dividing the enzymatic rate for each treatment group by that of the vehicle control. Percent positive control was calculated with the following equation: […]

[3] = tested on: CYP1A2; conditions: human, 3 days; for Enzyme activity, Phenacetin O-dealkylation (CYP1A2) / Percent positive control, Phenacetin O-dealkylation (CYP1A2) activity: hepatocytes
Procedure: as §1, §2, §3, §4

[4] = Pharmacokinetic profile in rat plasma following oral administration; format: in vivo
Procedure: The main objectives of this example were: • Quantification of Compound 1, Compound 2, Compound 3 and Laquinimod in rat plasma using LC/MS/MS bioanalytical method. • Characterization of the pharmacokinetic profile of Compound 1, Compound 2, Compound 3 and Laquinimod following oral (PO) administration at a dose of 0.2 mg/kg. • The measurement DELAQ concentrations in the collected plasma samples. Rats cannulated at the right common jugular vein by polyethylene tubing were used. In the in-life part, three cannulated female rats were treated with each of the four test articles at dose of 0.2 mg/kg. Blood was withdrawn from the rats at five different time points for the preparation of plasma. The concentrations of Compound 1, Compound 2, Compound 3, laquinimod, and DELAQ were determined in these plasma samples, using applicable LC/MS/MS methods. Oral administration was performed by oral gavage at a dosage volume of 5 ml/kg using a blunt feeding stainless steel needle (Popper & Sons, USA). Body weights were measured before dose administration and doses were calculated on the basis of individual body weight. Blood were withdrawn from animals at the following time points: 1, 2, 4, 8 and 24 hours after dosing as detailed in the table below. The actual sampling time were recorded. Each animal was restrained firmly. After the removal of the seal the port of the cannula was accessed with an appropriate blunted needle mounted on a syringe containing PBS. After having withdrawn approximately 100 μL of blood, the syringe was changed to a clean heparinized syringe. Approximately 250 μL of blood was collected for the preparation of plasma. The first 100 μL fraction of blood was returned and 250 μL of PBS was given to the animal through the catheter. The catheter was filled by heparinized glycerol (100 IU/ml) solution prepared by mixing 10 ml stock heparin (200 IU/ml) with 10 ml of sterile glycerol (d=1.26 g/mL). Blood specimens were mixed immediately and were placed on water ice. Whole blood was centrifuged at 2500 g for 10 min at 4° C., and the separated plasma was transferred into pre-labeled polypropylene tubes and the tubes were frozen at −70° C. within 70 minutes of collection. The concentrations of test items (Compound 1, Compound 2, Compound 3 and Laquinimod) and the concentration of DELAQ were determined in the plasma samples by using reliable LC/MS/MS assay. Pharmacokinetic parameters were calculated and the mean plasma levels versus time curves were evaluated. The following pharmacokinetic parameters were determined from the mean plasma concentration-time data (mean of three animals at each time point) of Compound 1, Compound 2, Compound 3 and Laquinimod.

[5] = female, rat, po, 0.2 mg/kg, Average of rats
[6] = female, rat, po, 0.2 mg/kg, Average of rats, read-out: Cmax
[7] = female, rat, po, 0.2 mg/kg, Average of rats, read-out: Tmax
[8] = female, rat, po, 0.2 mg/kg, individual rats
[9] = female, rat, po, 0.2 mg/kg, individual rats, read-out: Cmax
[10] = female, rat, po, 0.2 mg/kg, individual rats, read-out: Tmax
[11] = individual rats, oral 0.2 mg/kg

## [2H]C([2H])([2H])C([2H])([2H])N(C(=O)c1c(O)c2c(Cl)cccc2n(C)c1=O)c1ccccc1 [Compound 2, N-D5-ethyl-N-phenyl-1,2-dihydro-4-hydroxy-5-chloro-1-methyl-2-oxoquinoline-3-carboxamide]
[1]; 10 μM
  difference in the Compound 2:DELAQ to laquinimod:DELAQ ratio: ~3 fold
  ratio of test article:DELAQ in spent media, on average: 40.9
[2]; 0.01 μM
  Fold Increase, Midazolam 1′-hydroxylation (CYP3A4/5) activity: 0.91 fold
  Enzyme activity, Midazolam 1′-hydroxylation (CYP3A4/5): 0.179 ± 0.006 pmol/mg protein/min
  Percent positive control, Midazolam 1′-hydroxylation (CYP3A4/5) activity: −2.24%
[2]; 0.05 μM
  Fold Increase, Midazolam 1′-hydroxylation (CYP3A4/5) activity: 0.77 fold
  Enzyme activity, Midazolam 1′-hydroxylation (CYP3A4/5): 0.151 ± 0.009 pmol/mg protein/min
  Percent positive control, Midazolam 1′-hydroxylation (CYP3A4/5) activity: −5.94%
[2]; 0.1 μM
  Fold Increase, Midazolam 1′-hydroxylation (CYP3A4/5) activity: 0.72 fold
  Enzyme activity, Midazolam 1′-hydroxylation (CYP3A4/5): 0.140 ± 0.010 pmol/mg protein/min
  Percent positive control, Midazolam 1′-hydroxylation (CYP3A4/5) activity: −7.46%
[2]; 1 μM
  Fold Increase, Midazolam 1′-hydroxylation (CYP3A4/5) activity: 0.56 fold
  Enzyme activity, Midazolam 1′-hydroxylation (CYP3A4/5): 0.109 ± 0.010 pmol/mg protein/min
  Percent positive control, Midazolam 1′-hydroxylation (CYP3A4/5) activity: −11.5%
[2]; 10 μM
  Fold Increase, Midazolam 1′-hydroxylation (CYP3A4/5) activity: 0.51 fold
  Enzyme activity, Midazolam 1′-hydroxylation (CYP3A4/5): 0.101 ± 0.003 pmol/mg protein/min
  Percent positive control, Midazolam 1′-hydroxylation (CYP3A4/5) activity: −12.7%
[3]; 0.01 μM
  Fold Increase, Phenacetin O-dealkylation (CYP1A2) activity: 7.39 fold
  Enzyme activity, Phenacetin O-dealkylation (CYP1A2): 22.1 ± 2.7 pmol/mg protein/min
  Percent positive control, Phenacetin O-dealkylation (CYP1A2) activity: 23.3%
[3]; 0.05 μM
  Fold Increase, Phenacetin O-dealkylation (CYP1A2) activity: 10.54 fold
  Enzyme activity, Phenacetin O-dealkylation (CYP1A2): 31.6 ± 2.6 pmol/mg protein/min
  Percent positive control, Phenacetin O-dealkylation (CYP1A2) activity: 34.9%
[3]; 0.1 μM
  Fold Increase, Phenacetin O-dealkylation (CYP1A2) activity: 16.12 fold
  Enzyme activity, Phenacetin O-dealkylation (CYP1A2): 48.2 ± 2.4 pmol/mg protein/min
  Percent positive control, Phenacetin O-dealkylation (CYP1A2) activity: 55.2%
[3]; 1 μM
  Fold Increase, Phenacetin O-dealkylation (CYP1A2) activity: 30.36 fold
  Enzyme activity, Phenacetin O-dealkylation (CYP1A2): 90.8 ± 11.5 pmol/mg protein/min
  Percent positive control, Phenacetin O-dealkylation (CYP1A2) activity: 107%
[3]; 10 μM
  Fold Increase, Phenacetin O-dealkylation (CYP1A2) activity: 60.21 fold
  Enzyme activity, Phenacetin O-dealkylation (CYP1A2): 180 ± 8 pmol/mg protein/min
  Percent positive control, Phenacetin O-dealkylation (CYP1A2) activity: 216%
[4]; [5]
  AUC(0-inf): 12300 ng·h/mL
  AUC(0-t): 10300 ng·h/mL
  half-life: 13.8 h
[4]; [6]
  Cmax: 725 ng/mL
[4]; [7]
  Tmax: 1.8 h
[4]; [8]
  AUC(0-inf): 10000 ng·h/mL
  AUC(0-t): 10000 ng·h/mL
  half-life: 13.6 h
[4]; [9]
  Cmax: 704 ng/mL
[4]; [10]
  Tmax: 2 h
[4]; [11]
  AUCinf: 14699.6 ng·h/mL and 12439.0 ng·h/mL and 11975.3 ng·h/mL
  AUClast: 10422.1 ng·h/mL and 8741.6 ng·h/mL and 11975.3 ng·h/mL
  Cmax: 827.6 ng/mL and 551.4 ng/mL and 816.2 ng/mL
  T1/2: 13.4 h and 14.6 h
  Tmax: 1.0 h

## CCN(C(=O)c1c(O)c2c(Cl)cccc2n(C)c1=O)c1ccccc1 [Laquinimod, N-ethyl-N-phenyl-1,2-dihydro-4-hydroxy-5-chloro-1-methyl-2-oxoquinoline-3-carboxamide]
[1]
  concentration of formed DELAQ in laquinimod media compared to Compound 2 media: approximately 2 fold
[1]; 10 μM
  increase in the formation of DELAQ from laquinimod compared to Compound 2: approximately 3 fold
  ratio of test article:DELAQ in spent media, on average: 15.7
[2]; 0.01 μM
  Fold Increase, Midazolam 1′-hydroxylation (CYP3A4/5) activity: 0.92 fold
  Enzyme activity, Midazolam 1′-hydroxylation (CYP3A4/5): 0.180 ± 0.023 pmol/mg protein/min
  Percent positive control, Midazolam 1′-hydroxylation (CYP3A4/5) activity: −2.04%
[2]; 0.05 μM
  Fold Increase, Midazolam 1′-hydroxylation (CYP3A4/5) activity: 0.82 fold
  Enzyme activity, Midazolam 1′-hydroxylation (CYP3A4/5): 0.161 ± 0.013 pmol/mg protein/min
  Percent positive control, Midazolam 1′-hydroxylation (CYP3A4/5) activity: −4.63%
[2]; 0.1 μM
  Fold Increase, Midazolam 1′-hydroxylation (CYP3A4/5) activity: 0.78 fold
  Enzyme activity, Midazolam 1′-hydroxylation (CYP3A4/5): 0.151 ± 0.002 pmol/mg protein/min
  Percent positive control, Midazolam 1′-hydroxylation (CYP3A4/5) activity: −5.89%
[2]; 1 μM
  Fold Increase, Midazolam 1′-hydroxylation (CYP3A4/5) activity: 0.54 fold
  Enzyme activity, Midazolam 1′-hydroxylation (CYP3A4/5): 0.106 ± 0.004 pmol/mg protein/min
  Percent positive control, Midazolam 1′-hydroxylation (CYP3A4/5) activity: −12.0%
[2]; 10 μM
  Fold Increase, Midazolam 1′-hydroxylation (CYP3A4/5) activity: 0.49 fold
  Enzyme activity, Midazolam 1′-hydroxylation (CYP3A4/5): 0.0957 ± 0.0067 pmol/mg protein/min
  Percent positive control, Midazolam 1′-hydroxylation (CYP3A4/5) activity: −13.4%
[3]; 0.01 μM
  Fold Increase, Phenacetin O-dealkylation (CYP1A2) activity: 8.43 fold
  Enzyme activity, Phenacetin O-dealkylation (CYP1A2): 25.2 ± 0.8 pmol/mg protein/min
  Percent positive control, Phenacetin O-dealkylation (CYP1A2) activity: 27.1%
[3]; 0.05 μM
  Fold Increase, Phenacetin O-dealkylation (CYP1A2) activity: 18.06 fold
  Enzyme activity, Phenacetin O-dealkylation (CYP1A2): 54.0 ± 4.5 pmol/mg protein/min
  Percent positive control, Phenacetin O-dealkylation (CYP1A2) activity: 62.3%
[3]; 0.1 μM
  Fold Increase, Phenacetin O-dealkylation (CYP1A2) activity: 21.75 fold
  Enzyme activity, Phenacetin O-dealkylation (CYP1A2): 65.1 ± 1.9 pmol/mg protein/min
  Percent positive control, Phenacetin O-dealkylation (CYP1A2) activity: 75.8%
[3]; 1 μM
  Fold Increase, Phenacetin O-dealkylation (CYP1A2) activity: 43.79 fold
  Enzyme activity, Phenacetin O-dealkylation (CYP1A2): 131 ± 12 pmol/mg protein/min
  Percent positive control, Phenacetin O-dealkylation (CYP1A2) activity: 156%
[3]; 10 μM
  Fold Increase, Phenacetin O-dealkylation (CYP1A2) activity: 61.02 fold
  Enzyme activity, Phenacetin O-dealkylation (CYP1A2): 183 ± 7 pmol/mg protein/min
  Percent positive control, Phenacetin O-dealkylation (CYP1A2) activity: 219%
[4]; [5]
  AUC(0-inf): 15500 ng·h/mL
  AUC(0-t): 11700 ng·h/mL
  half-life: 11.8 h
[4]; [6]
  Cmax: 794 ng/mL
[4]; [7]
  Tmax: 1.7 h
[4]; [8]
  AUC(0-inf): 14700 ng·h/mL
  AUC(0-t): 11000 ng·h/mL
  half-life: 12 h
[4]; [9]
  Cmax: 770 ng/mL
[4]; [10]
  Tmax: 2 h
[4]; [11]
  AUCinf: 17141.8 ng·h/mL and 14684.6 ng·h/mL
  AUClast: 12659.7 ng·h/mL and 11487.3 ng·h/mL
  Cmax: 774.8 ng/mL and 838.8 ng/mL
  T1/2: 12.4 h and 10.9 h
  Tmax: 1.0 h
